From ChEMBL document CHEMBL3751826, “Sulfamide derivatives with selective carbonic anhydrase VII inhibitory action” (Bioorg Med Chem, 2016)

Columns and labels:
[1] = target: Carbonic anhydrase 1 (Homo sapiens, UniProt P00915)
Description: Inhibition of recombinant human carbonic anhydrase 1 preincubated for 15 mins by stopped-flow CO2 hydration assay

[2] = target: Carbonic anhydrase 2 (Homo sapiens, UniProt P00918)
Description: Inhibition of recombinant human carbonic anhydrase 2 preincubated for 15 mins by stopped-flow CO2 hydration assay

[3] = target: Carbonic anhydrase 7 (Homo sapiens, UniProt P43166)
Description: Inhibition of recombinant human carbonic anhydrase 7 preincubated for 15 mins by stopped-flow CO2 hydration assay

[4] = target: Carbonic anhydrase 9 (Homo sapiens, UniProt Q16790)
Description: Inhibition of recombinant human carbonic anhydrase 9 preincubated for 15 mins by stopped-flow CO2 hydration assay

[5] = target: Carbonic anhydrase 12 (Homo sapiens, UniProt O43570)
Description: Inhibition of recombinant human carbonic anhydrase 12 preincubated for 15 mins by stopped-flow CO2 hydration assay

[6] = target: Carbonic anhydrase 14 (Homo sapiens, UniProt Q9ULX7)
Sequence of Carbonic anhydrase 14 (Q9ULX7 whole entry): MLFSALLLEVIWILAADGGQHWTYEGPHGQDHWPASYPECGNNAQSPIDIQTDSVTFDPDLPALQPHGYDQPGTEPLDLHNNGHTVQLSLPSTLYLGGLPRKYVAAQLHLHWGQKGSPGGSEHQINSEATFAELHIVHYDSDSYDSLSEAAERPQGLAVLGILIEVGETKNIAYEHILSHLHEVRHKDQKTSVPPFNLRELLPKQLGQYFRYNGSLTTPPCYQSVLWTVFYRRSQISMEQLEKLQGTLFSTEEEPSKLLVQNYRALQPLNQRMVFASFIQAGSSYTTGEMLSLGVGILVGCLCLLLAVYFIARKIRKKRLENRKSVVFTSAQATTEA
Description: Inhibition of recombinant human carbonic anhydrase 14 preincubated for 15 mins by stopped-flow CO2 hydration assay

Sequence of Carbonic anhydrase 7 (P43166 whole entry): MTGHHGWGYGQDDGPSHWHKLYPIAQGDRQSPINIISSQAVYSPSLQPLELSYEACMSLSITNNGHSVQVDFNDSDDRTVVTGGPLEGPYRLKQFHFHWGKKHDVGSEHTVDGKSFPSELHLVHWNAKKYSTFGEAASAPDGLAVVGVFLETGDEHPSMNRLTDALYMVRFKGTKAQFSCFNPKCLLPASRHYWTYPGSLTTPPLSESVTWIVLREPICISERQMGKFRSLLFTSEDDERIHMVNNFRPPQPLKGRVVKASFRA
Sequence of Carbonic anhydrase 1 (P00915 whole entry): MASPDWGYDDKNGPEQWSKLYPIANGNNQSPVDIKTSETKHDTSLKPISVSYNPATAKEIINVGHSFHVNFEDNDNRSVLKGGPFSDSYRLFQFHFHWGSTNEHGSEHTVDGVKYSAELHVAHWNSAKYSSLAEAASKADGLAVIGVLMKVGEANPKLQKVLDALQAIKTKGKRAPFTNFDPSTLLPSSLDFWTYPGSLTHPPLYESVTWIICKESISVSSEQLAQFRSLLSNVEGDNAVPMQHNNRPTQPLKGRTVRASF
Sequence of Carbonic anhydrase 12 (O43570 whole entry): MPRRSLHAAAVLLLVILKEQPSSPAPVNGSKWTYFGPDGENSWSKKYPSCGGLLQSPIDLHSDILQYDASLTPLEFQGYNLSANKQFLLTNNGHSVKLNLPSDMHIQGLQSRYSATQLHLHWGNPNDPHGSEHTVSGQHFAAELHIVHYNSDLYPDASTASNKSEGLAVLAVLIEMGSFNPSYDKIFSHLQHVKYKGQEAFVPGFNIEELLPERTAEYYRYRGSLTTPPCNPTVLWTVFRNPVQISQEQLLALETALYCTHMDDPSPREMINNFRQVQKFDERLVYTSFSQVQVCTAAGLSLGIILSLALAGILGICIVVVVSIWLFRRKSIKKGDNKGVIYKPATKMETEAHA

Row | Ki [1] [nM] | Ki [2] [nM] | Ki [3] [nM] | Ki [4] [nM] | Ki [5] [nM] | Ki [6] [nM] | SMILES
1 | > 10000 | > 10000 | 0.24 | 25.7 | 0.74 | 7.4 | COC(=O)[C@@H](NS(=O)(=O)NCc1ccc(F)cc1)C(C)C
2 | > 10000 | 8880 | 0.45 | 29.3 | 74.4 | 22.7 | COC(=O)CCNS(=O)(=O)NCc1ccc(F)cc1
3 | > 10000 | 8530 | 0.37 | 225 | 6.8 | 7.7 | COC(=O)[C@H](Cc1ccccc1)NS(=O)(=O)NCC(C)C
4 | > 10000 | 4960 | 0.43 | 30.5 | 60.7 | 8 | COC(=O)CCNS(=O)(=O)NC12CC3CC(CC(C3)C1)C2
5 | > 10000 | > 10000 | 0.27 | 31.8 | 4.7 | 6.3 | COC(=O)CCNS(=O)(=O)NCC(C)C
6 | > 10000 | 7680 | 0.3 | 96.7 | 5 | 6.1 | CCCCCCNS(=O)(=O)NCCC(=O)OC
7 | > 10000 | > 10000 | 0.31 | 117 | 5.2 | 7.5 | COC(=O)CCNS(=O)(=O)NC(C)c1ccccc1 (stereo unspecified)

Row | SMILES | Ki [1] [nM] | Ki [2] [nM] | Ki [3] [nM] | Ki [4] [nM] | Ki [5] [nM] | Ki [6] [nM]
8 | COC(=O)[C@H](Cc1ccccc1)NS(=O)(=O)NCc1ccc(F)cc1 | > 10000 | > 10000 | 0.28 | 28.1 | 0.66 | 6.5
9 | O=S(=O)([O-])NC1CCCCC1.[Na+] [SODIUM CYCLAMATE] | > 10000 | > 10000 | 0.24 | 81.3 | 3.8 | 6.6
10 | COC(=O)CCNS(=O)(=O)NCCc1ccccc1 | > 10000 | > 10000 | 2.2 | 26.5 | 64.2 | 7.3
11 | COC(=O)[C@@H](NS(=O)(=O)NCC(C)C)C(C)C | > 10000 | > 10000 | 0.39 | 191 | 33.7 | 7.8
